This is an account of results in patent publication US8716284B2, “Adamantyl diamide derivatives and uses of same” (H. Lundbeck A/S, priority 2008, dated 2014).

Experiment [1] has as its target T1, rat metabotropic glutamate receptor 5 (mGluR5) (Rattus norvegicus, UniProt P31424).
T1 construct: expressed in transfected cells; host or cells: HEK 293
Kind of experiment: Calcium mobilization assay (FLIPR) for negative or positive allosteric activity, HEK 293 cells. Format: cell-based. Particulars: HEK293, negative allosteric modulation, inhibition of EC80 glutamate response; read-out: FLIPR maximum inhibition. The method, boiled down:
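HEK 293 cells stably expressing rat mGluR5, Fluo-4 loaded in HEPES-buffered HBSS pH 7.4 with 0.1% BSA and probenecid. Compound added with EC20 (potentiation) or EC80 (inhibition) glutamate; fluorescence read over 3 min at room temperature. Basal-subtracted maximum fluorescence change fitted to Hill equation.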

The next experiment relates to adult, male CD1 mice. In words: Mouse marble burying (mMB) assay, anxiolytic effect. Format: in vivo. Conditions: for minimal effective dose: SC injection, one-way ANOVA with Dunnett's test or t-test, read-out: Statistically significant Active Dose. Here is the method:
(§1) Examples 1, 2 and 58 were evaluated in vivo for anxiolytic effects using (1) mouse marble burying (mMB) methods similar to those described in [K. Njung'e, K. and S. L. Handley, Pharmacology, Biochemistry and Behavior, 1991, 38, 63-67] and (2) a modified Geller-Seifter conflict test described in [N. A. Moore et al. Behavioural Pharmacology. 1994, 5, 196-202].
More specifically for the mMB testing, adult, male CD1 mice (Charles River Laboratories (Kingston, N.Y.)), weighing 25 to 30 g, were used. All animals were group-housed in a standard colony room with a 12:12 light/dark cycle (lights on at 6:00 am) for at least one week prior to testing. Food and water were provided ad libitum. Animals were weighed, tail marked, and randomly assigned to treatment groups before testing.
For each test, sixty minutes after the injection of vehicle or test compound, or 30 min after injection of the positive control, buspirone, mice were individually placed into test cages containing 1.5 in of Aspen bedding (PWI brand) and two rows of 10 marbles (20 marbles per test cage total). Filter tops were used to cover each test cage. Thirty minutes later, mice were removed from test cages and returned to their home cages. The number of fully visible marbles (less than ⅔ covered with bedding) were counted and subtracted from 20 to arrive at the number of marbles buried. Twelve mice were tested per group.
Testing included multiple tests with each test performed to evaluate buspirone hydrochloride (BUS; Sigma Aldrich) (positive control) and/or a compound of the present invention. Each compound was dissolved immediately prior to testing in 20% beta-cyclodextrin (compound of the present invention) or distilled water (BUS) and administered at one or more doses (such as 3, 10, and/or 30 mg/kg) via subcutaneous (SC) or intraperitoneal (IP) injection at the indicated pretreatment times (i.e., 30, 60, or 120 min pretreatment). Doses were measured in mg drug (salt form) per kg body weight. Data was analyzed using one-way ANOVA with post-hoc Dunnett's test.

The next experiment has as its target mGluR5 (Homo sapiens, UniProt P41594). In words: Radioligand binding assay, [3H]MPEP filtration binding to membrane homogenates. Conditions: 5 nM [3H]MPEP; Ki calculated from IC50 by Cheng-Prusoff. As to the method:
Binding assays were performed as described in [J. A. O'Brien et al. Mol. Pharmacol., 2003, 64, 731-740] with slight modifications. Briefly, after thawing, the membrane homogenates were resuspended in 50 mM Tris-HCl, 0.9% NaCl binding buffer at pH 7.4 to a final assay concentration of 40 μg protein/well for [^3H]methoxy-5-(2-pyridinylethynyl)pyridine ([^3H] MPEP) (American Radiolabeled Chemicals, Inc., St. Louis, Mo.) filtration binding. Incubations included 5 nM [^3H] MPEP, membranes and either buffer or varying concentrations of compound. Samples were incubated for 60 min at room temperature with shaking. Non-specific binding was defined with 10 μM MPEP. After incubation, samples were filtered over a GF/C filter (presoaked in 0.25% polyethyleneimine (PEI)) and then washed 4 times using a Tomtec® Harvester 96® Mach III cell harvester (Tomtec, Hamden, Conn.) with 0.5 mL ice-cold 50 mM Tris-HCl (pH 7.4).
IC50 values were derived from the inhibition curve and Ki values were calculated according to the Cheng and Prusoff equation of Ki=IC50/(1+[L]/Kd) described in [Y. Cheng and W. H. Prusoff Biochem. Pharmacol. 1973, 22, 3099-3108] where [L] is the concentration of radioligand and Kd is its dissociation constant at the receptor, derived from the saturation isotherm.

The test system of experiment [2] is adult, male Sprague-Dawley rats. In words: Modified Geller-Seifter conflict test, anxiolytic effect. Type of experiment: in vivo, rat. Conditions: for Statistically significant Active dose(s): oral, Geller-Seifter assay, ANOVA with Dunnett's test or t-test. As to the method:
as §1
More specifically for the Geller-Seifter Conflict testing, rodent operant chambers (ENV-007CT, Med Associates Inc. (Georgia, Vt.)) and sound-attenuating chambers (ENV-018MD, Med Associates Inc.) were used. Each chamber was equipped with a house light, cue lights, grid floor to deliver foot shocks via a programmable shocker, (ENV-414, Med Associates, Inc.) and food hopper. Two levers were located on either side of the food hopper, Rats were trained to only respond on the left lever. Food reinforcement was used (Dustless Precision Pellets, 45 mg, BioServ, (Frenchtown, N.J.)). MED-PCIV software (Med Associates) was used to run experimental sessions and collect data.
Prior to beginning the Conflict procedure, animals were initially trained to lever press on fixed ratio schedules (FR 1, 2, 5, and 10). Once animals obtained 25 rewards on a FR 10 schedule for 2 consecutive days, animals began training on a three component Conflict schedule. […] These three components were repeated twice in the same order during the daily 30 minute session.
Animals were tested using a Latin-squares design, on Wednesdays and Fridays. Animals served as their own controls and received all treatments. To maintain baseline performance, animals were also trained the remaining three weekdays.
Testing was performed using 12 adult, male Sprague-Dawley rats, weighing 426-567 g (Charles River Laboratories (Kingston, N.Y.)). Animals were pair-housed in colony rooms maintained at controlled temperature (68-72° F.) and a 12-h light/dark cycle (lights on 06:00). Animals were given free access to water, while food was limited to 15 g of Bacon Lover's Treats (BioServ) after training/testing Monday through Thursday. Friday through Sunday, animals had free access to Lab Diet 5012 Rat Diet (PMI Nutrition International, LLC, Brentwood, Mo.) until cages were changed and food removed on Sunday.
Testing included multiple tests where each test was performed to evaluate either a reference compound or a compound of the present invention. Reference anxiolytics included chlordiazepoxide, diazepam and buspirone, which were dissolved in saline or water and administered via SC, IP, and/or PO, Test compounds were dissolved in 20% beta-cyclodextrin, and the pH was adjusted to 7 with NaHCO3. For each test, the compound to be evaluated was tested at one or more doses (such as 10, 20, 30 and/or 50 mg/kg) via p.o. administration 60 minutes before the test using an injection volume of 2 mL/kg in comparison with a vehicle control group. Doses were measured in mg drug (salt form) per kg body weight. Data was analyzed using Repeated Measures ANOVA with post-hoc Dunnett's test.

Chain of mGluR5 (P41594 21-1212): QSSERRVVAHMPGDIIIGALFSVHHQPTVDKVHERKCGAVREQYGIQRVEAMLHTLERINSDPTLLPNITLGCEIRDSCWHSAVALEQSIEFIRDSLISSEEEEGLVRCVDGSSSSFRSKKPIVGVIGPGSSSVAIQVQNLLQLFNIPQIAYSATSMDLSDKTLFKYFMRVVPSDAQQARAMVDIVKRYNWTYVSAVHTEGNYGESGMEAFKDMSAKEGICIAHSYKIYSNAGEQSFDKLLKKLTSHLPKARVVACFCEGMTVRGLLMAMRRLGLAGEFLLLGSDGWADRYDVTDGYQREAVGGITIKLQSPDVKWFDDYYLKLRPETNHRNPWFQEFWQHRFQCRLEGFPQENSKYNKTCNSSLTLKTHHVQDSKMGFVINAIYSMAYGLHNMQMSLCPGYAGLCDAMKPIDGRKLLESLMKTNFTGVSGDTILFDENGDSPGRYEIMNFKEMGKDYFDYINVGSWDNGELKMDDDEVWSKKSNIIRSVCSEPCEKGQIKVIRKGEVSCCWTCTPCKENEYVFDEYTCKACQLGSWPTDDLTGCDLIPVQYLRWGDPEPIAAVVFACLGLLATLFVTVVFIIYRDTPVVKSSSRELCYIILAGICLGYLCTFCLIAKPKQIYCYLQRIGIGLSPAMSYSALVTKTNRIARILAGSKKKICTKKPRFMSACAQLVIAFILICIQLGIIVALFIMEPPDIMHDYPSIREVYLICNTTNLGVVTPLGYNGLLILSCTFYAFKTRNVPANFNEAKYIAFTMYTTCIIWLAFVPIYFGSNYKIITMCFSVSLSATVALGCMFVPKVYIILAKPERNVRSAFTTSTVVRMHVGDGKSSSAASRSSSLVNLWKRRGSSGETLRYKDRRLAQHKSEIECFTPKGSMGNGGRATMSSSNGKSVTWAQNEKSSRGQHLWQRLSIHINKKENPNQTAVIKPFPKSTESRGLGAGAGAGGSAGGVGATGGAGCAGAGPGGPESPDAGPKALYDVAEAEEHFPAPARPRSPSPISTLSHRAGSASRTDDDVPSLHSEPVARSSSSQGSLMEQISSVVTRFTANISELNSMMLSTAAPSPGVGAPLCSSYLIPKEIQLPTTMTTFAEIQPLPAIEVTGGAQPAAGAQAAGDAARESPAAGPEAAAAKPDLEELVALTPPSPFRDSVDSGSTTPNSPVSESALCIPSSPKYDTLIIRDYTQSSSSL
T1 sequence (P31424 21-1171 isoform P31424-2 limits assumed): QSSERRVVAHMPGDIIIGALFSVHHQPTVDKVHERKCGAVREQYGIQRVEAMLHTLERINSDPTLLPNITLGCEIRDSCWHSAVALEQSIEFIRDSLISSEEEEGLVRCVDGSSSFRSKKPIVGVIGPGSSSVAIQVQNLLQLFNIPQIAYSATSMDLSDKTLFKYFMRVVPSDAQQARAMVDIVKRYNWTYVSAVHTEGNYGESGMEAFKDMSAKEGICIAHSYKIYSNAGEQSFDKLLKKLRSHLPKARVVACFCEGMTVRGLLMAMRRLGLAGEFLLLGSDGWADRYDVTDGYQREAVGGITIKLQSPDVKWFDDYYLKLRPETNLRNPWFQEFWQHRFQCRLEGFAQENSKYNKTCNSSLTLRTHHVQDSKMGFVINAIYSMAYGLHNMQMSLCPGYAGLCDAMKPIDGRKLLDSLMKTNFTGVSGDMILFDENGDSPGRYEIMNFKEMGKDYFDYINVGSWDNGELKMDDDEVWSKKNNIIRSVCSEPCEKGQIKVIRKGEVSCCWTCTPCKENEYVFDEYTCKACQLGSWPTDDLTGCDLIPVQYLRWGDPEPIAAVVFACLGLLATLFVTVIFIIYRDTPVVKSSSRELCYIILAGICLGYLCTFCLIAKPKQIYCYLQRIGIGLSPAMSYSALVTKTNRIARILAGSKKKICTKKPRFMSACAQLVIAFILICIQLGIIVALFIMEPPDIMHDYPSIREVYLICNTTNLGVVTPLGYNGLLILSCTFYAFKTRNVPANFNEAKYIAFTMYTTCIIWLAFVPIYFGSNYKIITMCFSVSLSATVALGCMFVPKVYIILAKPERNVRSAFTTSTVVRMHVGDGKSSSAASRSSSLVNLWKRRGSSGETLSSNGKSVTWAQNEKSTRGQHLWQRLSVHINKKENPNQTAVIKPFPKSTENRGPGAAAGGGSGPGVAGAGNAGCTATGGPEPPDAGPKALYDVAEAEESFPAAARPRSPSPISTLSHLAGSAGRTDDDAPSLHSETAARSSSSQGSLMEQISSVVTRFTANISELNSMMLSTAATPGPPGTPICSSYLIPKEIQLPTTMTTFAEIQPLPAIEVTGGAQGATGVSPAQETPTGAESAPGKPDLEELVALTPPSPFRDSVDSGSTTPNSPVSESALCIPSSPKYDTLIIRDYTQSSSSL

As to `Cc1cncc(C(=O)NC23CC4CC(C2)CC(NC(=O)c2cncc(C)n2)(C4)C3)n1` [Example 145, N,N′-(1,3-adamantylene)bis(6-methyl-pyrazine-2-carboxamide)], the Emax in experiment [1] lay in the range of 70 to 99%. For the same compound, the minimal effective dose in the experiment with adult, male CD1 mice is 30 mg/kg.

Turning to `Cc1cncc(C(=O)NC23CC4CC(CC(NC(=O)c5ccc(F)cn5)(C4)C2)C3)n1` [Example 179, 6-Methyl-pyrazine-2-carboxylic acid {3-[(5-fluoro-pyridine-2-carbonyl)-amino]-adamantan-1-yl}-amide], in the experiment with adult, male CD1 mice, the minimal effective dose was determined as 10 mg/kg.

Turning to `Cc1nccc(C(=O)NC23CC4CC(CC(NC(=O)c5ccccn5)(C4)C2)C3)n1` [Example 107, 2-Methyl-pyrimidine-4-carboxylic acid {3-[(pyridine-2-carbonyl)-amino]-adamantan-1-yl}-amide], the inhibition constant Ki on mGluR5 is 6 to 700 nM. Also, the Emax in experiment [1] lay in the range of 70 to 99%. Further, the minimal effective dose in the experiment on adult, male CD1 mice is 10 mg/kg.

Take `Cc1cncc(C(=O)NC23CC4CC(CC(NC(=O)c5ccccn5)(C4)C2)C3)n1` [Example 58, 6-Methyl-pyrazine-2-carboxylic acid {3-[(pyridine-2-carbonyl)-amino]-adamantan-1-yl}-amide]: on mGluR5, the Ki was 6 to 700 nM. Moreover, in experiment [1], the Emax was 63 to 99%. In the experiment on adult, male CD1 mice (SC given for Example 58), the “mMB EDmin” value was determined as 10 mg/kg. Besides, the “Geller-Seifter EDmin” value in experiment [2] (rat conflict test, PO for Example 58) came out at 10 mg/kg.

Consider `O=C(NC12CC3CC(C1)CC(NC(=O)c1cnccn1)(C3)C2)c1ccccn1` [Example 105, Pyrazine-2-carboxylic acid {3-[(pyridine-2-carbonyl)-amino]-adamantan-1-yl}-amide], for which, at mGluR5, the Ki is 6 to 700 nM. In experiment [1], the Emax lay in the range of 70 to 99%. The minimal effective dose in the experiment on adult, male CD1 mice worked out at 30 mg/kg.

As to `Cc1cnc(C(=O)NC23CC4CC(CC(NC(=O)c5ccccn5)(C4)C2)C3)cn1` [Example 63, 5-Methyl-pyrazine-2-carboxylic acid {3-[(pyridine-2-carbonyl)-amino]-adamantan-1-yl}-amide], the Emax in experiment [1] was in the range of 63 to 99%. For the same compound, in the experiment with adult, male CD1 mice, the minimal effective dose amounted to 30 mg/kg.

Take `Cc1cccc(C(=O)NC23CC4CC(CC(NC(=O)c5cnccn5)(C4)C2)C3)n1` [Example 41, Pyrazine-2-carboxylic acid {3-[(6-methyl-pyridine-2-carbonyl)-amino]-adamantan-1-yl}-amide]: the Emax in experiment [1] was 63 to 99%. In experiment [2], the “Statistically significant Active dose(s)” value was determined as 30 mg/kg.

In the case of `Cc1cccc(C(=O)NC23CC4CC(C2)CC(NC(=O)c2ccnc(C)n2)(C4)C3)n1` [Example 119, 2-Methyl-pyrimidine-4-carboxylic acid {3-[(6-methyl-pyridine-2-carbonyl)-amino]-adamantan-1-yl}-amide], the Ki on mGluR5 is 6 to 700 nM. The Emax in experiment [1] fell in the range of 70 to 99%. In addition, the minimal effective dose in the experiment with adult, male CD1 mice turned out to be 10 mg/kg.

On to `Cc1cnc(C(=O)NC23CC4CC(CC(NC(=O)c5cccc(F)c5)(C4)C2)C3)cn1` [Example 94, 5-Methyl-pyrazine-2-carboxylic acid [3-(3-fluoro-benzoylamino)-adamantan-1-yl]-amide], for which the Ki at mGluR5 was 6 to 700 nM. In addition, in experiment [1], the Emax was 63 to 99%. The “Statistically significant Active dose(s)” value in experiment [2] was found to be 20 mg/kg.

As for `O=C(NC12CC3CC(C1)CC(NC(=O)c1cnccn1)(C3)C2)c1ccc(F)cn1` [Example 185, Pyrazine-2-carboxylic acid {3-[(5-fluoro-pyridine-2-carbonyl)-amino]-adamantan-1-yl}-amide], in experiment [1], the Emax fell in the range of 63 to 99%. Also, the minimal effective dose with adult, male CD1 mice stood at 30 mg/kg.

Take `Cc1nccc(C(=O)NC23CC4CC(CC(NC(=O)c5cccc(F)c5)(C4)C2)C3)n1` [Example 183, 2-Methyl-pyrimidine-4-carboxylic acid [3-(3-fluoro-benzoylamino)-adamantan-1-yl]-amide]: in the experiment with adult, male CD1 mice, the minimal effective dose came to 10 mg/kg.

Regarding `Cc1cccc(C(=O)NC23CC4CC(CC(NC(=O)c5cccc(-c6ncccn6)c5)(C4)C2)C3)n1` [Example 44, 6-Methyl-pyridine-2-carboxylic acid [3-(3-pyrimidin-2-yl-benzoylamino)-adamantan-1-yl]-amide], the Ki at mGluR5 is 6 to 700 nM. In experiment [1], the Emax lay in the range of 63 to 99%.

Consider `O=C(NC12CC3CC(C1)CC(NC(=O)c1ccncn1)(C3)C2)c1cccc(F)c1` [Example 93, Pyrimidine-4-carboxylic acid [3-(3-fluoro-benzoylamino)-adamantan-1-yl]-amide], for which the Ki on mGluR5 was 6 to 700 nM. For the same compound, the Emax in experiment [1] was in the range of 63 to 99%. In addition, in the experiment on adult, male CD1 mice, the minimal effective dose stood at 30 mg/kg.

Regarding `Cc1cccc(C(=O)NC23CC4CC(CC(NC(=O)c5cscn5)(C4)C2)C3)n1` [Example 120, 6-Methyl-pyridine-2-carboxylic acid {3-[(thiazole-4-carbonyl)-amino]-adamantan-1-yl}-amide], the Ki on mGluR5 was 6 to 700 nM. Further, in experiment [1], the Emax fell in the range of 70 to 99%.

For `O=C(NC12CC3CC(C1)CC(NC(=O)c1cnccn1)(C3)C2)c1cccc(F)c1` [Example 95, Pyrazine-2-carboxylic acid [3-(3-fluoro-benzoylamino)-adamantan-1-yl]-amide], the Ki on mGluR5 is 6 to 700 nM. In experiment [1], the Emax was in the range of 63 to 99%.

As to `Cn1ccc(C(=O)NC23CC4CC(C2)CC(NC(=O)c2nccs2)(C4)C3)n1` [Example 19, Thiazole-2-carboxylic acid {3-[(1-methyl-1H-pyrazole-3-carbonyl)-amino]-adamantan-1-yl}-amide], the Ki on mGluR5 is 6 to 700 nM. Besides, in experiment [1], the Emax lay within 63 to 99%.
